Read-outs that look alike come from different tables or passages of the source.
How the values were obtained:
BJ-hTert (fibroblasts) = test: Antiproliferative activity on non-tumour cells, NCI protocol; assay type: cell-based, human; conditions: non-tumour cell line; for GI50: Homo sapiens, Fibroblast, read-out: GI50 BJ-hTert (Fibroblasts)
Protocol: (§1) Organochalcogen derivatives prepared herein were evaluated in vitro as potential antiproliferative agents, using a panel of six human tumour cell lines: A549 (non-small cell lung), HBL-100 (breast), HeLa (cervix), SW1573 (non-small cell lung), as drug sensitive lines, T-47D (breast) and WiDr (colon) as drug resistant lines. In addition to precursors 2, 6, 7, 13, 14, 17, 19, ebselen and cisplatin (CDDP) were used as reference drugs. […] In both cases, the NCI protocol, with minor modifications, was followed; selected data, including the selectivity index (S.I.) can be found in Table 3 and full data in Supporting Information (Table S1).
(§2) The in vitro antiproliferative activity was assayed using minor modifications of the protocol of the National Cancer Institute (NCI) of the United States against the six human solid tumor cell and the non-tumor cell lines tested.

HeLa (cervix) = test: Antiproliferative activity, NCI protocol; assay type: cell-based, human; conditions: for GI50: read-out: GI50 HeLa (Cervix)
Protocol: as §1, §2

T-47D (breast) = test: Antiproliferative activity, NCI protocol; assay type: cell-based, human; conditions: drug resistant line; for GI50: read-out: GI50 T-47D (Breast)
Protocol: as §1, §2

HBL-100 (breast) = test: Antiproliferative activity, NCI protocol; assay type: cell-based, human; conditions: for GI50: read-out: GI50 HBL-100 (Breast)
Protocol: as §1, §2

[1] = tested on: SW1573 (non-small cell lung); test: Antiproliferative activity, NCI protocol; assay type: cell-based, human; conditions: Table S1, read-out: GI50 SW1573 (Lung)
Protocol: as §1, §2

WiDr (colon) = test: Antiproliferative activity, NCI protocol; assay type: cell-based, human; conditions: drug resistant line; for GI50: read-out: GI50 WiDr (Colon)
Protocol: as §1, §2

[2] = tested on: A549 (non-small cell lung); test: Antiproliferative activity, NCI protocol; assay type: cell-based, human; conditions: for GI50: read-out: GI50 A549 (Lung)
Protocol: as §1, §2

SW1573 = test: P-glycoprotein assay, wild type line; assay type: cell-based; conditions: Homo sapiens, 48 h exposure
Protocol: (§3) This assay allows prediction of whether a certain chemotherapeutic agent could develop chemoresistance when behaving as a P-gp substrate, one of the most common efllux-pumps used for the extrusion of cell xenobiotics. For that purpose, a cell line-based assay was used, in particular the lung cancer cell line in its wild type (SW1573), and its variant overexpressing P-gp (Sw1573/Pgp). Moreover, compounds were tested in the presence and in the absence of verapamil, which is known to inhibit P-gp. Chemotherapeutic agents paclitaxel (PTX) and vinblastine (VB) are used herein as reference compounds. In this assay, the resistance factor (Rf) for a certain compound is defined as the ratio of GI50 in the cell line overexpressing P-gp and the wild one (Table 4), high values of Rf denoting that the compound behaves as a P-gp substrate, and thus, chemoresistance through this mechanism will probably take place.

[3] = tested on: six human tumour cell lines (A549, HBL-100, HeLa, SW1573, T-47D, WiDr); test: Antiproliferative activity, panel of six human tumour cell lines; assay type: cell-based; conditions: summary over the tested tumour cell lines, highest tested concentration 100 µM
Protocol: as §1, §2

[4] = P-glycoprotein assay, line overexpressing P-gp; assay type: cell-based, human; conditions: human, 48 h exposure
Protocol: as §3

SW1573/Pgp = test: P-glycoprotein assay, line overexpressing P-gp; assay type: cell-based, human; conditions: ratio between GI50 values in SW1573/PGP and SW1573 cells; for Rf w Verapamil: with verapamil; for Rf w/o Verapamil: without verapamil
Protocol: as §3

[5] = H2O2 scavenging (phenol red / horseradish peroxidase); conditions: At 50 µM
Protocol: (§4) In vitro antioxidant properties of key unprotected phenolic derivatives were analyzed using two different methodologies: free radical scavenging capacity, using the DPPH method (2,2-diphenyl-1-picrylhydrazyl), a HAT (hydrogen atom transfer) procedure, widely-used for both natural and synthetic derivatives, and also the capacity for scavenging H2O2, one of the most common ROS in degenerative diseases, including cancer.
Herein, following Bahorun’s methodology, in vitro levels of H2O2 were measured in an indirect fashion, by registering the H2O2-mediated oxidation of phenol red in the presence of horseradish peroxidase, to give a chromophore with a maximum absorption at 610 nm. Accordingly, in the presence of an antioxidant agent, there is an inverse correlation between the observed absorbance, and the scavenging properties. Table 2 depicts the H2O2-scavenging properties of compounds prepared herein, and tested at a final 50 µM concentration.
Reported methodology was used with minor modifications.

[6] = Free radical scavenging (DPPH method); conditions: 30 min incubation, absorbance at 515 nm, read-out: EC50 antiradical activity (DPPH)
Protocol: as §4
DPPH is a commercially-available stable free radical commonly used for in vitro testing of radical scavenging properties of antioxidants.
Reported methodology was used with minor modifications. To a 60 µM methanolic DPPH solution (1.17 mL), the antioxidant solution (5–7 different solutions, 30 µL) or solvent (control, 30 µL) were added. After 30 min. of incubation in the dark, absorbance was measured at 515 nm, and EC50 values were calculated.

[7] = with verapamil, read-out: GI50 SW153 w Verapamil
[8] = without verapamil, read-out: GI50 SW1573 w/o Verapamil
[9] = with verapamil (concentration not stated), with verapamil, read-out: GI50 SW1573/PGP w Verapamil
[10] = without verapamil, read-out: GI50 SW1573/PGP w/o Verapamil

Molecule	GI50 (BJ-hTert (fibroblasts)) [µM]	GI50 (HeLa (cervix); Homo sapiens, HeLa) [nM]	GI50 (T-47D (breast); Homo sapiens, T47D) [nM]	GI50 (HBL-100 (breast); Homo sapiens, HBL-100) [nM]	GI50 ([1]; Homo sapiens, SW1573) [µM]	GI50 (WiDr (colon); Homo sapiens, WiDr) [nM]	GI50 ([2]; Homo sapiens, A549) [nM]	GI50 (SW1573; [7]) [nM]	GI50 (SW1573; [8]) [nM]	GI50 over the tumour cell lines (range, bound or words) [3]	GI50 at 48 h [4, 9] [µM]	GI50 at 48 h [4, 10] [µM]	Rf w Verapamil (SW1573/Pgp)	Rf w/o Verapamil (SW1573/Pgp)	other results
N#C[Se]Cc1ccc2c(c1)OCO2 [Compound 35, (3′,4′-Methylenedioxyphenyl)methyl selenocyanate]	8.7 ± 3.2	3500 ± 800	3400 ± 200	3500 ± 1400	4.4 ± 0.5	2000 ± 100	3100 ± 700	3100 ± 1000	2300 ± 500	low micromolar‒submicromolar activities	7 ± 0.6	7.1 ± 0.6	2.3	3.1	–
N#C[Se]CCc1ccc2c(c1)OCO2 [Compound 36, 2-(3′,4′-Methylendioxyphenyl)ethyl selenocyanate]	14 ± 2	1200 ± 200	1100 ± 300	2100 ± 200	3.8 ± 0.1	1300 ± 600	1800 ± 700	3100 ± 400	4200 ± 700	low micromolar‒submicromolar activities	5.3 ± 0.6	6.8 ± 0.4	1.7	1.6	–
N#C[Se]CCCc1ccc2c(c1)OCO2 [Compound 37, 3-(3’,4’-Methylenedioxyphenyl)propyl selenocyanate]	–	–	–	–	–	–	–	–	–	–	–	–	–	–	GI50 BJ-hTert (Fibroblasts) (BJ-hTert (fibroblasts)): Not soluble; GI50 HeLa (Cervix) (HeLa (cervix)): Not soluble; GI50 T-47D (Breast) (T-47D (breast)): Not soluble; GI50 HBL-100 (Breast) (HBL-100 (breast)): Not soluble; GI50 WiDr (Colon) (WiDr (colon)): Not soluble; GI50 A549 (Lung) [2]: Not soluble
c1cc2c(cc1CC[Se][Se]CCc1ccc3c(c1)OCO3)OCO2 [Compound 40, Bis[2-(3′,4′-methylenedioxyphenyl)ethyl]diselenide]	28 ± 5	950 ± 70	880 ± 170	2000 ± 900	2.7 ± 0.3	1200 ± 100	1600 ± 500	1800 ± 200	1900 ± 100	low micromolar‒submicromolar activities	4.5 ± 1	3.9 ± 0.2	2.5	2.0	–
N#C[Se]CCCC(=O)NCCc1ccc2c(c1)OCO2 [Compound 45, N-[2′-(3′,4′-Methylenedioxyphenyl)ethyl]-4-selenocyanatobutanamide]	1.8 ± 0.7	360 ± 90	400 ± 40	1600 ± 300	0.81 ± 0.02	410 ± 30	410 ± 30	1100 ± 100	1100 ± 200	–	2.5 ± 0.1	3.3 ± 0.6	2.3	3.1	GI50 ([3]; Homo sapiens, read-out: GI50 over the tumour cell lines (range, bound or words)): 360 to 1600 nM
N-[2′-(3′’,4′’-Dihydroxyphenyl)ethyl]-3-phenylselenopropanamide [Compound 18]	–	–	–	–	–	–	–	–	–	moderate antiproliferative properties	–	–	–	–	% Scavenging of H2O2 [5]: 19.0 ± 0.8%; GI50 (HeLa (cervix)): 23000 ± 1000 nM; GI50 (T-47D (breast)): 71000 ± 5000 nM; GI50 (HBL-100 (breast)): 34000 ± 1000 nM; GI50 [1]: 28 ± 4 µM; GI50 (WiDr (colon)): 85000 ± 21000 nM; GI50 [2]: 33000 ± 5000 nM; EC50 [6]: 23.2 ± 0.6 µM

Reference: publication PMC7692337, “Masked Phenolic-Selenium Conjugates: Potent and Selective Antiproliferative Agents Overcoming P-gp Resistance” (Pharmaceuticals, 2020)
